Test results from patent US10407425B2, “Indazole inhibitors of the Wnt signal pathway and therapeutic uses thereof” (Samumed, LLC, priority 2012, dated 2019).
pIC50: −log10 of the molar value.

Test system: Wnt activity
Experiment: Wnt activity reporter assay (SP5 promoter firefly luciferase in SW480 cells)
Type: cell-based
Details: Homo sapiens; SW480 cells bearing SP5 promoter luciferase reporter; 24 h after compound addition; read-out: Wnt inhibition
Text: The above synthesized compounds were screened using the assay procedure for Wnt activity described below.
Reporter cell lines can be generated by stably transducing cells of cancer cell lines (e.g., colon cancer) with a lentiviral construct that include a wnt-responsive promoter driving expression of the firefly luciferase gene.
Lentiviral constructs can be made in which the SP5 promoter, a promoter having eight TCF/LEF binding sites derived from the SP5 promoter, is linked upstream of the firefly luciferase gene. The lentiviral constructs can also include a hygromycin resistance gene as a selectable marker. The SP5 promoter construct can be used to transduce SW480 cells, a colon cancer cell line having a mutated APC gene that generates a truncated APC protein, leading to de-regulated accumulation of β-catenin.
Cultured SW480 cells bearing a reporter construct can be distributed at approximately 10,000 cells per well into 384 well multiwell plates. Compounds from a small molecule compound library can then be added to the wells in half-log dilutions using a three micromolar top concentration. A series of control wells for each cell type receive only buffer and compound solvent. Twenty-four hours after the addition of compound, reporter activity for luciferases can be assayed, for example, by addition of the BrightGlo luminescence reagent (Promega) and the Victor3 plate reader (Perkin Elmer). Readings can be normalized to DMSO only treated cells, and normalized activities can then be used in the IC50 calculations.

SMILES | pIC50
Fc1ccccc1-c1cncc2[nH]c(-c3n[nH]c4ccc(-c5cncc(CN6CCCCC6)c5)cc34)nc12 [Compound 127, 7-(2-Fluorophenyl)-2-(5-(5-(piperidin-1-ylmethyl)pyridin-3-yl)-1H-indazol-3-yl)-3H-imidazo[4,5-c]pyridine] | 7.85
Fc1cccc(-c2cncc3[nH]c(-c4n[nH]c5ccc(-c6cccnc6)cc45)nc23)c1 [Compound 15, 7-(3-fluorophenyl)-2-(5-(pyridin-3-yl)-1H-indazol-3-yl)-3H-imidazo[4,5-c]pyridine] | 7.60 to 8.00
FC1(F)CCN(Cc2cncc(-c3ccc4[nH]nc(-c5nc6c(-c7ccsc7)cncc6[nH]5)c4c3)c2)C1 [Compound 346, 2-(5-(5-((3,3-Difluoropyrrolidin-1-yl)methyl)pyridin-3-yl)-1H-indazol-3-yl)-7-(thiophen-3-yl)-3H-imidazo[4,5-c]pyridine] | 8.70
CC(C)Nc1cncc(-c2ccc3[nH]nc(-c4nc5c(-c6ccccc6F)cncc5[nH]4)c3c2)c1 [Compound 124, 5-(3-(7-(2-Fluorophenyl)-3H-imidazo[4,5-c]pyridin-2-yl)-1H-indazol-5-yl)-N-isopropylpyridin-3-amine] | 9.00
O=C(Nc1cncc(-c2ccc3[nH]nc(-c4nc5c(N6CCCCC6)cncc5[nH]4)c3c2)c1)C1CCC1 [Compound 217, N-(5-(3-(7-(Piperidin-1-yl)-3H-imidazo[4,5-c]pyridin-2-yl)-1H-indazol-5-yl)pyridin-3-yl)cyclobutanecarboxamide] | 7.41
CC(C)(C)CC(=O)Nc1cncc(-c2ccc3[nH]nc(-c4nc5ccncc5[nH]4)c3c2)c1 [Compound 280, N-(5-(3-(3H-Imidazo[4,5-c]pyridin-2-yl)-1H-indazol-5-yl)pyridin-3-yl)-3,3-dimethylbutanamide] | 7.68
CCCC(=O)Nc1cncc(-c2ccc3[nH]nc(-c4nc5c(N6CCCCC6)cncc5[nH]4)c3c2)c1 [Compound 214, N-(5-(3-(7-(Piperidin-1-yl)-3H-imidazo[4,5-c]pyridin-2-yl)-1H-indazol-5-yl)pyridin-3-yl)butyramide] | 7.38
Cc1ccncc1-c1ccc2[nH]nc(-c3nc4c(N5CCCCC5)cncc4[nH]3)c2c1 [Compound 202, 2-(5-(4-Methylpyridin-3-yl)-1H-indazol-3-yl)-7-(piperidin-1-yl)-3H-imidazo[4,5-c]pyridine] | 6.27
CC(C)CC(=O)Nc1cncc(-c2ccc3[nH]nc(-c4nc5c(-c6cc(F)cc(CNS(C)(=O)=O)c6)cncc5[nH]4)c3c2)c1 [Compound 373, N-(5-(3-(7-(3-Fluoro-5-(methylsulfonamidomethyl)phenyl)-3H-imidazo[4,5-c]pyridin-2-yl)-1H-indazol-5-yl)pyridin-3-yl)-3-methylbutanamide] | 8.30
O=C(Cc1ccccc1)Nc1cncc(-c2ccc3[nH]nc(-c4nc5ccncc5[nH]4)c3c2)c1 [Compound 274, N-(5-(3-(3H-Imidazo[4,5-c]pyridin-2-yl)-1H-indazol-5-yl)pyridin-3-yl)-2-phenylacetamide] | < 5.00
O=C(Cc1ccccc1)Nc1cncc(-c2ccc3[nH]nc(-c4nc5c(-c6cccc(F)c6)cncc5[nH]4)c3c2)c1 [Compound 86, N-(5-(3-(7-(3-Fluorophenyl)-3H-imidazo[4,5-c]pyridin-2-yl)-1H-indazol-5-yl)pyridin-3-yl)-2-phenylacetamide] | 7.64
CN(C)Cc1cncc(-c2ccc3[nH]nc(-c4nc5c(-c6cncc(F)c6)cncc5[nH]4)c3c2)c1 [Compound 16, 1-(5-(3-(7-(5-fluoropyridin-3-yl)-3H-imidazo[4,5-c]pyridin-2-yl)-1H-indazol-5-yl)pyridin-3-yl)-N,N-dimethylmethanamine] | 6.70 to 6.79
CC(C)(C)C(=O)Nc1cncc(-c2ccc3[nH]nc(-c4nc5c(-c6ccc(F)cc6)cncc5[nH]4)c3c2)c1 [Compound 102, N-(5-(3-(7-(4-Fluorophenyl)-3H-imidazo[4,5-c]pyridin-2-yl)-1H-indazol-5-yl)pyridin-3-yl)pivalamide] | 8.40
